PubChem BioAssay AID256 (DTP/NCI, 2004)
Several values for one entry are separate records, joined by “and”; a condition that tells them apart may be missing. Equal entries are not always repeated. Toxic doses and inconclusive results are not listed.

Tested on: CD2F1 mice, L1210 leukemia ip, survival T/C
Assay: NCI In Vivo Anticancer Drug Screen. Data for tumor model L1210 Leukemia (intraperitoneal) in CD2F1 (CDF1) mice
Details: higher = longer survival
In short: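 Implant tumor; dose compound or vehicle; measure endpoint in both groups; report treated divided by control.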

Compound: OC(CBr)C(O)C(O)C(O)CBr (centres undefined)
- T/C (endpoint: mean survival time, dose: 25.0 mg/kg/injection, schedule: Q01DX009 (oral), vehicle: other): 109 % of control
- T/C (endpoint: mean survival time, dose: 50.0 mg/kg/injection, schedule: Q01DX009 (oral), vehicle: other): 112 % of control
- T/C (endpoint: mean survival time, dose: 100.0 mg/kg/injection, schedule: Q01DX001 (ip), vehicle: saline): 103 % of control
- T/C (endpoint: mean survival time, dose: 100.0 mg/kg/injection, schedule: Q01DX009 (oral), vehicle: other): 121 % of control
- T/C (endpoint: mean survival time, dose: 100.0 mg/kg/injection, schedule: Q04DX003 (ip), vehicle: saline): 101 % of control and 103 % of control
- T/C (endpoint: mean survival time, dose: 200.0 mg/kg/injection, schedule: Q01DX001 (ip), vehicle: saline): 101 % of control
- T/C (endpoint: mean survival time, dose: 200.0 mg/kg/injection, schedule: Q04DX003 (ip), vehicle: Klucel (hydroxypropylcellulose) (HPC)): 120 % of control
- T/C (endpoint: mean survival time, dose: 200.0 mg/kg/injection, schedule: Q04DX003 (ip), vehicle: saline): 108 % of control
- T/C (endpoint: mean survival time, dose: 237.0 mg/kg/injection, schedule: Q04DX003 (ip), vehicle: saline with Tween-80): 94 % of control
- T/C (endpoint: mean survival time, dose: 355.55 mg/kg/injection, schedule: Q04DX003 (ip), vehicle: saline with Tween-80): 89 % of control
- T/C (endpoint: mean survival time, dose: 400.0 mg/kg/injection, schedule: Q01DX001 (ip), vehicle: saline): 106 % of control
- T/C (endpoint: mean survival time, dose: 400.0 mg/kg/injection, schedule: Q01DX009 (oral), vehicle: other): 113 % of control
- T/C (endpoint: mean survival time, dose: 400.0 mg/kg/injection, schedule: Q04DX003 (ip), vehicle: saline): 101 % of control and 108 % of control
- T/C (endpoint: mean survival time, dose: 533.33 mg/kg/injection, schedule: Q04DX003 (ip), vehicle: saline with Tween-80): 99 % of control
- T/C (endpoint: mean survival time, dose: 800.0 mg/kg/injection, schedule: Q04DX003 (ip), vehicle: saline with Tween-80): 94 % of control
- T/C (endpoint: mean survival time, dose: 800.0 mg/kg/injection, schedule: Q04DX003 (ip), vehicle: saline): 116 % of control
- T/C (endpoint: mean survival time, dose: 1200.0 mg/kg/injection, schedule: Q04DX003 (ip), vehicle: saline with Tween-80): 98 % of control
- T/C (endpoint: mean survival time, dose: 1200.0 mg/kg/injection, schedule: Q04DX003 (ip), vehicle: saline): 114 % of control
- T/C (endpoint: median survival time, dose: 8.0 mg/kg/injection, schedule: Q03HX024 (ip), vehicle: Klucel (hydroxypropylcellulose) (HPC)): 103 % of control
- T/C (endpoint: median survival time, dose: 16.0 mg/kg/injection, schedule: Q03HX008 (ip), vehicle: Klucel (hydroxypropylcellulose) (HPC)): 108 % of control
- T/C (endpoint: median survival time, dose: 16.0 mg/kg/injection, schedule: Q03HX016 (ip), vehicle: Klucel (hydroxypropylcellulose) (HPC)): 105 % of control
- T/C (endpoint: median survival time, dose: 16.0 mg/kg/injection, schedule: Q03HX024 (ip), vehicle: Klucel (hydroxypropylcellulose) (HPC)): 106 % of control
- T/C (endpoint: median survival time, dose: 32.0 mg/kg/injection, schedule: Q01DX009 (ip), vehicle: Klucel (hydroxypropylcellulose) (HPC)): 104 % of control
- T/C (endpoint: median survival time, dose: 32.0 mg/kg/injection, schedule: Q03HX008 (ip), vehicle: Klucel (hydroxypropylcellulose) (HPC)): 115 % of control
- T/C (endpoint: median survival time, dose: 32.0 mg/kg/injection, schedule: Q03HX016 (ip), vehicle: Klucel (hydroxypropylcellulose) (HPC)): 103 % of control
- T/C (endpoint: median survival time, dose: 32.0 mg/kg/injection, schedule: Q03HX024 (ip), vehicle: Klucel (hydroxypropylcellulose) (HPC)): 109 % of control
- T/C (endpoint: median survival time, dose: 64.0 mg/kg/injection, schedule: Q01DX009 (ip), vehicle: Klucel (hydroxypropylcellulose) (HPC)): 105 % of control
- T/C (endpoint: median survival time, dose: 64.0 mg/kg/injection, schedule: Q04DX003 (ip), vehicle: Klucel (hydroxypropylcellulose) (HPC)): 109 % of control
- T/C (endpoint: median survival time, dose: 120.0 mg/kg/injection, schedule: Q01DX005 (ip), vehicle: Klucel (hydroxypropylcellulose) (HPC)): 151 % of control and 159 % of control and 163 % of control
- T/C (endpoint: median survival time, dose: 128.0 mg/kg/injection, schedule: Q01DX001 (ip), vehicle: Klucel (hydroxypropylcellulose) (HPC)): 108 % of control
- T/C (endpoint: median survival time, dose: 128.0 mg/kg/injection, schedule: Q01DX009 (ip), vehicle: Klucel (hydroxypropylcellulose) (HPC)): 86 % of control
- T/C (endpoint: median survival time, dose: 128.0 mg/kg/injection, schedule: Q04DX003 (ip), vehicle: Klucel (hydroxypropylcellulose) (HPC)): 122 % of control
- T/C (endpoint: median survival time, dose: 128.0 mg/kg/injection, schedule: Q08DX002 (ip), vehicle: Klucel (hydroxypropylcellulose) (HPC)): 109 % of control
- T/C (endpoint: median survival time, dose: 180.0 mg/kg/injection, schedule: Q01DX005 (ip), vehicle: Klucel (hydroxypropylcellulose) (HPC)): 155 % of control and 162 % of control and 164 % of control
- T/C (endpoint: median survival time, dose: 200.0 mg/kg/injection, schedule: Q04DX003 (ip), vehicle: Klucel (hydroxypropylcellulose) (HPC)): 151 % of control
- T/C (endpoint: median survival time, dose: 256.0 mg/kg/injection, schedule: Q01DX001 (ip), vehicle: Klucel (hydroxypropylcellulose) (HPC)): 112 % of control
- T/C (endpoint: median survival time, dose: 256.0 mg/kg/injection, schedule: Q04DX003 (ip), vehicle: Klucel (hydroxypropylcellulose) (HPC)): 109 % of control
- T/C (endpoint: median survival time, dose: 256.0 mg/kg/injection, schedule: Q08DX002 (ip), vehicle: Klucel (hydroxypropylcellulose) (HPC)): 114 % of control
- T/C (endpoint: median survival time, dose: 270.0 mg/kg/injection, schedule: Q01DX005 (ip), vehicle: Klucel (hydroxypropylcellulose) (HPC)): 100 % of control
- T/C (endpoint: median survival time, dose: 300.0 mg/kg/injection, schedule: Q04DX003 (ip), vehicle: Klucel (hydroxypropylcellulose) (HPC)): 155 % of control and 184 % of control and 197 % of control
- T/C (endpoint: median survival time, dose: 400.0 mg/kg/injection, schedule: Q04DX003 (ip), vehicle: Klucel (hydroxypropylcellulose) (HPC)): 195 % of control
- T/C (endpoint: median survival time, dose: 512.0 mg/kg/injection, schedule: Q01DX001 (ip), vehicle: Klucel (hydroxypropylcellulose) (HPC)): 95 % of control
- T/C (endpoint: median survival time, dose: 512.0 mg/kg/injection, schedule: Q04DX003 (ip), vehicle: Klucel (hydroxypropylcellulose) (HPC)): 112 % of control
- T/C (endpoint: median survival time, dose: 512.0 mg/kg/injection, schedule: Q08DX002 (ip), vehicle: Klucel (hydroxypropylcellulose) (HPC)): 122 % of control
